Source: patent publication US20060128792A1, “Deguelin as a chemopreventive agent for lung cancer” (priority 2002, published 2006)
Where “and” joins values, the source holds several entries; their conditions need not be identical. Equal values may be shown once.

Columns and labels:
Type in all cases: cell-based
H358 = assay: MTT assay, growth inhibition by deguelin or deguelin derivatives; details: H358, 3 days
Chago = assay: as above; details: 3 days
A549 = assay: as above; details: A549, 3 days
H322 = assay: as above; details: H322, 3 days
[1] = tested on: premalignant (1799, 1198) and malignant (1170) HBE cell lines; assay: MTT assay, growth of premalignant and malignant HBE cell lines; details: HBE, 72 h, read-out: IC50, growth of premalignant and malignant HBE cell lines
Description: Cells and Cell Cultures. […] Tumors developed 6 months later. […] (Klein-Szanto et al., 1992).

[2] = tested on: pAkt (Ser473) and pGSK-3β (Ser9) in 1799 cells; assay: Western blot of pAkt (Ser473) and pGSK-3β (Ser9)
Experimental: (§1) Immunoblotting. Whole cell lysates were prepared in lysis buffer (50 mM N-[2-[…]]-piperazine-N′-[2-ethanesulfonic acid] [HEPES; pH 7.5], 150 mM NaCl, 1.5 mM MgCl2, ImM EDTA, 0.2 mM EGTA, 1% NP40, 10% glycerol, 1 mM dithiothreitol (DTT), 1 mM phenylmethylsulfonyl fluoride, 20 mM sodium fluoride, 5 mM sodium orthovanadate, 10 μg/ml aprotinin, 10 μg/ml leupeptin, 2 μg/ml pepstatin, and 1 mM benzamidine) as described previously (Lee et al., 2002). Equivalent protein concentrations were resolved in sodium dodecyl sulfate-polyacrylamide gels and transferred to a nitrocellulose membrane. After the blocking of transblotted membrane in Tris-buffered saline (TBS) containing 0.05% Tween 20 (TBST) and 5% low fat milk, themembrane was incubated with primary antibody at the appropriate dilution in TBS-5% low-fat milk at 4° C. for 16 h and washed with TBST. The immunoblots were visualized using the ECL kit (Amersham, Inc., Arlington Heights, III) according to the manufacturer's directions. Rabbit polyclonal antibodies against human pAkt (Ser473), Akt, and pGSK-3β (Ser9), and mouse monoclonal antibody against human anti-pMAPK (Thr202/Tyr204) were purchased from Cell Signalinng Technology (Beverly, Mass.). […]

[3] = tested on: pAkt (Ser473) and pGSK-3β (Ser9) in squamous HBE cells; assay: Western blot of pAkt (Ser473) and pGSK-3β (Ser9); details: time-dependent
Experimental: as §1
Effects of Deguelin on Squamous Differentiated HBE Cells. […] It was then determined whether deguelin inhibits the activation of PI3K/Akt pathway in squamous HBE cells. […]

H1299 NSCLC cells = assay: Sensitization to chemotherapeutic agents and irradiation, MTT analysis; details: deguelin 100 nM 2 days; 10 nM paclitaxel, 50 nM doxorubicin or 4Gy irradiation for 1 day
Experimental: FIG. 10. […] Results are expressed relative to the density of untreated cells. Bars, means±SD of a representative experiment done in six identical wells from five independently performed experiments.
Additional studies were conducted to determine whether deguelin can sensitize cells resistant to a chemotherapeutic agent. H1299 NSCLC cells were incubated with deguelin (100 nM) for 2 days.

## COc1cc2c(cc1OC)[C@@H]1C(=O)c3ccc4c(c3O[C@@H]1CO2)C=CC(C)(C)O4 [Deguelin]
H358; deguelin 10^−6M
  Avg. % con: 0.68 % con
  MTT value, mean of replicates (unheaded line): 0.111
  MTT value, replicate (unheaded line): 0.108 and 0.113 and 0.112
H358; deguelin 10^−8M
  Avg. % con: 0.74 % con
  MTT value, mean of replicates (unheaded line): 0.122
  MTT value, replicate (unheaded line): 0.114 and 0.128 and 0.125
H358; deguelin 10^−10M
  Avg. % con: 0.79 % con
  MTT value, mean of replicates (unheaded line): 0.129
  MTT value, replicate (unheaded line): 0.122 and 0.12 and 0.146
H358; deguelin 10^−12M
  Avg. % con: 0.87 % con
  MTT value, mean of replicates (unheaded line): 0.143
  MTT value, replicate (unheaded line): 0.148 and 0.143 and 0.139
Chago; deguelin 10^−6M
  Avg. % con: 0.56 % con
  MTT value, mean of replicates (unheaded line): 0.086
  MTT value, replicate (unheaded line): 0.094 and 0.086 and 0.078
Chago; deguelin 10^−8M
  Avg. % con: 0.65 % con
  MTT value, mean of replicates (unheaded line): 0.1
  MTT value, replicate (unheaded line): 0.101 and 0.093 and 0.106
Chago; deguelin 10^−10M
  Avg. % con: 1.24 % con
  MTT value, mean of replicates (unheaded line): 0.191
  MTT value, replicate (unheaded line): 0.192 and 0.184 and 0.197
Chago; deguelin 10^−12M
  Avg. % con: 1.18 % con
  MTT value, mean of replicates (unheaded line): 0.182
  MTT value, replicate (unheaded line): 0.175 and 0.179 and 0.192
A549; deguelin 10^−6M
  Avg. % con: 0.13 % con
  MTT value, mean of replicates (unheaded line): 0.060
  MTT value, replicate (unheaded line): 0.057 (2×) and 0.066
A549; deguelin 10^−8M
  Avg. % con: 0.83 % con
  MTT value, mean of replicates (unheaded line): 0.382
  MTT value, replicate (unheaded line): 0.381 (2×) and 0.385
A549; deguelin 10^−10M
  Avg. % con: 0.88 % con
  MTT value, mean of replicates (unheaded line): 0.408
  MTT value, replicate (unheaded line): 0.375 and 0.422 and 0.427
A549; deguelin 10^−12M
  Avg. % con: 0.89 % con
  MTT value, mean of replicates (unheaded line): 0.411
  MTT value, replicate (unheaded line): 0.416 and 0.404 and 0.412
H322; deguelin 10^−6M
  Avg. % con: 0.49 % con
  MTT value, mean of replicates (unheaded line): 0.094
  MTT value, replicate (unheaded line): 0.096 and 0.087 and 0.1
H322; deguelin 10^−8M
  Avg. % con: 0.89 % con
  MTT value, mean of replicates (unheaded line): 0.173
  MTT value, replicate (unheaded line): 0.172 (2×) and 0.174
H322; deguelin 10^−10M
  Avg. % con: 0.84 % con
  MTT value, mean of replicates (unheaded line): 0.163
  MTT value, replicate (unheaded line): 0.153 and 0.16 and 0.177
H322; deguelin 10^−12M
  Avg. % con: 0.86 % con
  MTT value, mean of replicates (unheaded line): 0.166
  MTT value, replicate (unheaded line): 0.168 and 0.16 and 0.17
[1]
  IC50: < 1 nM
[2]; 10^−7 M deguelin
  pAkt level, time course: reduced after 7 h of treatment and was virtually undetectable after 14 h
[2]; time-dependent, Akt, GSK-3α/β and β-Actin not affected
  levels of pAkt (Ser473) and pGSK-3β (Ser9): decreased
[3]
  elevated levels of pAkt (Ser473) and pGSK-3β (Ser9): down-regulated
H1299 NSCLC cells
  sensitization to chemotherapeutic agents: sensitizes cancer cells to chemotherapeutic agents
